Reference: US20040167203A1, “Absorption enhancing agents” (priority 2003, published 2004)
Like-named read-outs stand apart in the source and are kept apart here.

Columns and labels:
Caco-2 cell line [1] = format: in vitro ADME, human
Excerpt: (§1) The Caco-2 cell line is a well-recognized in vitro screening model, which both structurally and functionally represents the small intestinal epithelium. Caco-2 cells are derived from human colon carcinoma cells and differentiate in culture to form intestinal epithelia similar to that found in the small intestine. More specifically, Caco-2 cells form a brush border with normal enzymes, form tight junctions between cells, and acquire the barrier properties of an enterocyte sheet. […] The absorption enhancers were tested using two model drugs, sampatrilat and hydrochlorothiazide. In addition, a lactate dehydrogenase (LDH) assay was conducted after the permeation studies to evaluate the cytotoxicity of the absorption enhancers as well as to discover any violation of the integrity of the Caco-2 cells. LDH is a cytosolic enzyme that is not normally secreted outside the cell. However, it leaks into the culture medium upon damage to the cell membranes. In vitro release of LDH from cells provides an accurate measure of cell membrane integrity and cell viability. […] Wu, S.-J., et al, Pharmaceutical Res., 16(8): 1266-1272 (1999); Allen, M. J. et al., Promega Notes Magazine, Number 45, p. 7 (1994); or Ehrlich, M. et al, Current Protocols in Toxicology, John Wiley & Sons, New York (2000). LDH leakage into the apical compartment of the Caco-2 cell system was used to measure the effect, if any, of a given absorption enhancer on the viability of the Caco-2 cells.
Permeability coefficients are determined as previously reported by Yazdania et.el (Yazdanian M, Glynn, S I, Wright J L, et al. 1998. Correlating partitioning and Caco-2 permeability of structurally diverse small molecular weight compounds. Pharm Res 15:1490-1494). Briefly, drug solutions were prepared in HBSS at a known final concentration. For AP to BL experiments, the solution was placed on the apical side of the cells and samples were taken from basolateral side. In contrast, for BL to AP experiments, the solution was placed on the basolateral side of the cells and samples were taken from apical side. The samples are analyzed by an HPLC. Transport rates (J) are determined by plotting cumulative amounts of drug permeated as a function of time. Apparent permeability coefficients Pcaco-2, are determined according to the equation Pcaco-2=J/ACi where Ci is the initial concentration of the solution in donor chamber and A is the surface area of the filter.

Caco-2 cell line [2] = assay: in vitro; format: in vitro ADME; details: human, Caco-2, 1 % w/v
Excerpt: as §1
(§2) Permeability coefficients are determined as previously reported by Yazdania et.el (Yazdanian M, Glynn, S I, Wright J L, et al. 1998. Correlating partitioning and Caco-2 permeability of structurally diverse small molecular weight compounds. Pharm Res 15:1490-1494). […] The samples are analyzed by an HPLC. Transport rates (J) are determined by plotting cumulative amounts of drug permeated as a function of time. Apparent permeability coefficients Pcaco-2, are determined according to the equation Pcaco-2=J/ACi where Ci is the initial concentration of the solution in donor chamber and A is the surface area of the filter. […]

Caco-2 cells = assay: Lactate dehydrogenase (LDH) leakage assay after permeation studies; format: cell-based, human; details: relative to cells treated with Hank's balanced salt solution alone
Excerpt: as §1

in vitro = in vitro ADME; details: human, Caco-2
Excerpt: as §1, §2

Caco-2 cell line [3] = format: in vitro ADME; details: human, Caco-2, 1.8 mg/mL
Experimental: The original cell line integrity and the effect of excipients on the integrity of cell line were also tested by measuring the flux of ^14C-mannitol.

O=C1CCCCCCCCCCCCCCO1 [Cyclopentadecanolide, cyclopentadecanolide]
Potency in permeability enhancement (in words) (Caco-2 cell line [1]): low or no potency

CC1(C)[C@@H](O)CC[C@]2(C)[C@H]3C(=O)C=C4[C@@H]5C[C@@](C)(C(=O)O)CC[C@]5(C)CC[C@@]4(C)[C@]3(C)CC[C@@H]12 [Glycyrrehetinic acid, 18 β-glycyrrhetinic acid]
Potency in permeability enhancement (in words) (Caco-2 cell line [1]; human): low or no potency

CN(C)CC(=O)O [N,N-dimethylglycine]
Effect on sampatrilat permeation across the Caco-2 cell line (in words) (Caco-2 cell line [2]): significantly increase
Cytotoxicity (LDH assay) (Caco-2 cells): not cytotoxic

O=C(/C=C/C=C/c1ccc2c(c1)OCO2)N1CCCCC1 [Piperine, piperine]
Potency in permeability enhancement (in words) (Caco-2 cell line [1]; human): low or no potency

CS(=O)(=O)N[C@@H](CCCCN)C(=O)NC[C@H](CC1(C(=O)N[C@@H](Cc2ccc(O)cc2)C(=O)O)CCCC1)C(=O)O [Sampatrilat]
Papp A→B at 1.8 mg/mL (in vitro): 0.16 ×10⁻⁶ cm/s
Permeability Coefficient, Mannitol (Caco-2 cell line [3]): 4.9 10E−7 cm/s

O=C(O)CCCCCCCCC(=O)O [Sebacic acid, sebacic acid]
Effect on sampatrilat permeation across the Caco-2 cell line (in words) (Caco-2 cell line [2]): significantly increase
Cytotoxicity (LDH assay) (Caco-2 cells): not cytotoxic

O=C(O)C1=C[C@@H](O)[C@@H](O)[C@H](O)C1 [Shikimic acid, shikimic acid]
Cytotoxicity (LDH assay) (Caco-2 cells): not cytotoxic

Vitamin E TPGS [Vitamin E TGPS]
Potency in permeability enhancement (in words) (Caco-2 cell line [1]): low or no potency
